Laboratory results published in ChEMBL document CHEMBL3885861, “Open TG-GATES”.

Organism: Rattus norvegicus
Test: Open TG-GATES - Regimen: Daily Repeat
Format: toxicity, organism-based, Sprague-Dawley
Set-up: regimen Daily Repeat, gender Male, age 6 weeks
Conditions: in vivo, po, 100 mg/kg, route gavage, dose level Low; for APTT / Bas / Eos / Fbg / Hb / Ht / Lym / MCH / MCHC / MCV / Mono / Neu / PT / Plat / RBC / Ret / WBC: tissue Blood; for KIDNEY_L / KIDNEY_R / KIDNEY_TOTAL: tissue Kidney; for LIVER: tissue Liver; for A/G / ALP / ALT / AST / BUN / CRE / Ca / Cl / DBIL / GLC / IP / K / LDH / Na / PL / RALB / TBIL / TC / TG / TP / gamma-GTP: tissue Plasma

Which results are given for `CCOC(=O)CCC(=O)O[C@H]1[C@H](O[C@@H]2[C@@H](C)[C@H](O[C@H]3C[C@@](C)(OC)[C@@H](O)[C@H](C)O3)[C@@H](C)C(=O)O[C@H](CC)[C@@](C)(O)[C@H](O)[C@@H](C)C(=O)[C@H](C)C[C@@]2(C)O)O[C@H](C)C[C@@H]1N(C)C` [ERYTHROMYCIN ETHYLSUCCINATE]?
TERMINAL_BW (72 h, time 3 day): 235.5 g; APTT (72 h, time 3 day): 21.4 s; Bas (72 h, time 3 day): 0%; Eos (72 h, time 3 day): 1%; Fbg (72 h, time 3 day): 324.6 mg/dL; Hb (72 h, time 3 day): 13.4 g/dL; Ht (72 h, time 3 day): 39.4%; Lym (72 h, time 3 day): 83.4%; MCH (72 h, time 3 day): 20.7 pg; MCHC (72 h, time 3 day): 33.9%; MCV (72 h, time 3 day): 61.1 fL; Mono (72 h, time 3 day): 3%; Neu (72 h, time 3 day): 11.6%; PT (72 h, time 3 day): 15.9 s; Plat (72 h, time 3 day): 120.2 x10_4/uL; RBC (72 h, time 3 day): 645.4 x10_4/ul; Ret (72 h, time 3 day): 4.9%; WBC (72 h, time 3 day): 101.8 x10_2/uL; KIDNEY_L (72 h, time 3 day): 1 g; KIDNEY_R (72 h, time 3 day): 1 g; KIDNEY_TOTAL (72 h, time 3 day): 2 g; LIVER (72 h, time 3 day): 10.5 g; A/G (72 h, time 3 day): 1.2; ALP (72 h, time 3 day): 1729.8 IU/L; ALT (72 h, time 3 day): 44.4 IU/L; AST (72 h, time 3 day): 77.2 IU/L; BUN (72 h, time 3 day): 18 mg/dL; CRE (72 h, time 3 day): 0.1 mg/dL; Ca (72 h, time 3 day): 10.3 mg/dL; Cl (72 h, time 3 day): 107.2 meq/L; DBIL (72 h, time 3 day): 0 mg/dL; GLC (72 h, time 3 day): 187.2 mg/dL; IP (72 h, time 3 day): 7.1 mg/dL; K (72 h, time 3 day): 4.4 meq/L; LDH (72 h, time 3 day): 179.8 IU/L; Na (72 h, time 3 day): 141.4 meq/L; PL (72 h, time 3 day): 130 mg/dL; RALB (72 h, time 3 day): 3 g/dL; TBIL (72 h, time 3 day): 0.024 mg/dL; TC (72 h, time 3 day): 69.2 mg/dL; TG (72 h, time 3 day): 72.2 mg/dL; TP (72 h, time 3 day): 5.5 g/dL; gamma-GTP (72 h, time 3 day): 1.2 IU/L; TERMINAL_BW ([…], time 7 day): 255.3 g; TERMINAL_BW ([…], time 14 day): 320.9 g; TERMINAL_BW ([…], time 28 day): 401.9 g; APTT ([…], time 7 day): 21.7 s; Bas ([…], time 7 day): 0%; Eos ([…], time 7 day): 0.8%; Fbg ([…], time 7 day): 311.8 mg/dL; Hb ([…], time 7 day): 13.6 g/dL; Ht ([…], time 7 day): 40%; Lym ([…], time 7 day): 84.6%; MCH ([…], time 7 day): 20.4 pg; MCHC ([…], time 7 day): 33.9%; MCV ([…], time 7 day): 60.1 fL; Mono ([…], time 7 day): 2.2%; Neu ([…], time 7 day): 11.4%; PT ([…], time 7 day): 16.8 s; Plat ([…], time 7 day): 107.9 x10_4/uL; RBC ([…], time 7 day): 667.2 x10_4/ul; Ret ([…], time 7 day): 5.3%; WBC ([…], time 7 day): 77.9 x10_2/uL; APTT ([…], time 14 day): 20.2 s; Bas ([…], time 14 day): 0%; Eos ([…], time 14 day): 1.2%; Fbg ([…], time 14 day): 338 mg/dL; Hb ([…], time 14 day): 13.8 g/dL; Ht ([…], time 14 day): 39.8%; Lym ([…], time 14 day): 82%; MCH ([…], time 14 day): 20.6 pg; MCHC ([…], time 14 day): 34.9%; MCV ([…], time 14 day): 59.1 fL; Mono ([…], time 14 day): 2.2%; Neu ([…], time 14 day): 13.8%; PT ([…], time 14 day): 16.3 s; Plat ([…], time 14 day): 113.3 x10_4/uL; RBC ([…], time 14 day): 673.2 x10_4/ul; Ret ([…], time 14 day): 4.7%; WBC ([…], time 14 day): 110.5 x10_2/uL; APTT ([…], time 28 day): 23.6 s; Bas ([…], time 28 day): 0%; Eos ([…], time 28 day): 1.2%; Fbg ([…], time 28 day): 339 mg/dL; Hb ([…], time 28 day): 15.1 g/dL; Ht ([…], time 28 day): 43.9%; Lym ([…], time 28 day): 86%; MCH ([…], time 28 day): 19.6 pg; MCHC ([…], time 28 day): 34.5%; MCV ([…], time 28 day): 56.8 fL; Mono ([…], time 28 day): 2%; Neu ([…], time 28 day): 9.4%; PT ([…], time 28 day): 16 s; Plat ([…], time 28 day): 107.2 x10_4/uL; RBC ([…], time 28 day): 772.2 x10_4/ul; Ret ([…], time 28 day): 2.7%; WBC ([…], time 28 day): 102.2 x10_2/uL; KIDNEY_L ([…], time 7 day): 1.1 g; KIDNEY_R ([…], time 7 day): 1.1 g; KIDNEY_TOTAL ([…], time 7 day): 2.2 g; KIDNEY_L ([…], time 14 day): 1.2 g; KIDNEY_R ([…], time 14 day): 1.3 g; KIDNEY_TOTAL ([…], time 14 day): 2.5 g; KIDNEY_L ([…], time 28 day): 1.4 g; KIDNEY_R ([…], time 28 day): 1.4 g; KIDNEY_TOTAL ([…], time 28 day): 2.9 g; LIVER ([…], time 7 day): 11.1 g; LIVER ([…], time 14 day): 13.3 g; LIVER ([…], time 28 day): 16.2 g; A/G ([…], time 7 day): 1.1; ALP ([…], time 7 day): 1592.6 IU/L; ALT ([…], time 7 day): 36.4 IU/L; AST ([…], time 7 day): 64.6 IU/L; BUN ([…], time 7 day): 18.4 mg/dL; CRE ([…], time 7 day): 0.2 mg/dL; Ca ([…], time 7 day): 10.5 mg/dL; Cl ([…], time 7 day): 108.2 meq/L; DBIL ([…], time 7 day): 0 mg/dL; GLC ([…], time 7 day): 194.2 mg/dL; IP ([…], time 7 day): 7 mg/dL; K ([…], time 7 day): 4.2 meq/L; LDH ([…], time 7 day): 129 IU/L; Na ([…], time 7 day): 141.2 meq/L; PL ([…], time 7 day): 135.8 mg/dL; RALB ([…], time 7 day): 2.9 g/dL; TBIL ([…], time 7 day): 0 mg/dL; TC ([…], time 7 day): 68.6 mg/dL; TG ([…], time 7 day): 111.4 mg/dL; TP ([…], time 7 day): 5.5 g/dL; gamma-GTP ([…], time 7 day): 1.6 IU/L; A/G ([…], time 14 day): 1.2; ALP ([…], time 14 day): 1442.8 IU/L; ALT ([…], time 14 day): 36.8 IU/L; AST ([…], time 14 day): 66 IU/L; BUN ([…], time 14 day): 20.2 mg/dL; CRE ([…], time 14 day): 0.2 mg/dL; Ca ([…], time 14 day): 10.7 mg/dL; Cl ([…], time 14 day): 107.2 meq/L; DBIL ([…], time 14 day): 0 mg/dL; GLC ([…], time 14 day): 196.8 mg/dL; IP ([…], time 14 day): 6.8 mg/dL; K ([…], time 14 day): 4.4 meq/L; LDH ([…], time 14 day): 150 IU/L; Na ([…], time 14 day): 142.2 meq/L; PL ([…], time 14 day): 150.2 mg/dL; RALB ([…], time 14 day): 3.1 g/dL; TBIL ([…], time 14 day): 0.005 mg/dL; TC ([…], time 14 day): 79 mg/dL; TG ([…], time 14 day): 102 mg/dL; TP ([…], time 14 day): 5.7 g/dL; gamma-GTP ([…], time 14 day): 2.2 IU/L; A/G ([…], time 28 day): 1.2; ALP ([…], time 28 day): 1003.2 IU/L; ALT ([…], time 28 day): 37.8 IU/L; AST ([…], time 28 day): 59.2 IU/L; BUN ([…], time 28 day): 19.2 mg/dL; CRE ([…], time 28 day): 0.2 mg/dL; Ca ([…], time 28 day): 10.3 mg/dL; Cl ([…], time 28 day): 106.4 meq/L; DBIL ([…], time 28 day): 0 mg/dL; GLC ([…], time 28 day): 194.4 mg/dL; IP ([…], time 28 day): 6.9 mg/dL; K ([…], time 28 day): 4.1 meq/L; LDH ([…], time 28 day): 114 IU/L; Na ([…], time 28 day): 141.8 meq/L; PL ([…], time 28 day): 152 mg/dL; RALB ([…], time 28 day): 3.1 g/dL; TBIL ([…], time 28 day): 0.006 mg/dL; TC ([…], time 28 day): 78.8 mg/dL; TG ([…], time 28 day): 127.4 mg/dL; TP ([…], time 28 day): 5.9 g/dL; gamma-GTP ([…], time 28 day): 2.2 IU/L
